Experiment [1] has as its system Staphylococcus aureus (ATCC 43300). Kind of experiment: Antibacterial MIC, broth microdilution (CLSI). It is filed as cell-based. The note with it: for S. aureus Selectivity Indices, Group: SI, IC50 (μM)/MIC80 (μM), HEK293 cytotoxicity; for MIC80: Staphylococcus aureus, ATCC43300, read-out: MIC80 S. aureus.
Experiment [2] deals with Enterococcus faecalis (ATCC 51299). Briefly: Antibacterial MIC, broth microdilution (CLSI). The note with it: for MIC80: Enterococcus faecalis, ATCC51299, read-out: MIC80 E. faecalis. It is filed as cell-based.
For experiment [3], the system named is Escherichia coli (ATCC 25922). Kind of experiment: Antibacterial MIC, broth microdilution (CLSI). The note with it: Escherichia coli, ATCC25922; read-out: MIC80 E. coli. It counts as cell-based. In general terms: In broth dilution the organism is exposed to a series of concentrations in liquid medium.
The subject of a further experiment is T. vaginalis. Briefly: Trichomonas resorufin assay. It counts as cell-based. Conditions: for IC50: Trichomonas vaginalis, read-out: IC50 T. vaginalis.
In experiment [4] the test system is Genomic double stranded DNA (salmon). Briefly: Fluorescence intercalator displacement (FID) assay, SYBR-safe probe. Conditions: 20 μM compound, 30° C., lower % = stronger binding. On the procedure:
(§1) The ability of compounds of the invention to bind to DNA and RNA was assessed using a fluorescence intercalator displacement assay. Genomic double stranded DNA (salmon) or PolyAU double stranded RNA is treated with probe molecule (Sybr-Safe) that increases its fluorescence upon binding to nucleic acids.
(§2) polyAU RNA (Polyadenylic acid—Polyuridylic acid sodium salt, double-stranded homopolymer, P1537, Merck) or genomic DNA (Deoxyribonucleic acid sodium salt from salmon testes, D1626, Merck) was dissolved in 1 mM pH 7.4 phosphate buffer (containing 0.27 mM potassium chloride, 13.7 mM sodium chloride) to a concentration of 1 mg/mL in, SybrSafe (SYBR® Safe DNA Gel Stain, ×10,000 in DMSO, S33102 Invitrogen) was used as supplied by the manufacturer in DMSO, and compounds of the invention were prepared as 10 mM stocks in DMSO. These stock solutions were diluted appropriately with each other and 1 mM phosphate buffer to give test solutions comprised of 20 μM compound of the invention, 12500-fold dilution of SybrSafe and 3.76 ng/mL RNA/DNA. Control solutions of RNA/DNA and SybrSafe, RNA/DNA, and SybrSafe at these concentrations were also prepared. Test and control solutions were heated to 30° C. and the fluorescence of each solution was measured using the SYBER filter setting of a StepOnePlus using melt analysis mode (StepOne Software v2.3). The reduction of fluorescence due to the binding of the compound of the invention to the RNA/DNA was calculated as a normalised percentage based on the fluorescence measured due to the control with SybrSafe and RNA/DNA as maximum and the control with only SybrSafe as minimum.
(§3) A reduction in normalised % is indicative of probe displacement and thus strong nucleic acid binding.

For experiment [5], the system named is PolyAU double stranded RNA. The experiment is described as above. The note with it: 20 μM compound, 30° C., lower % = stronger binding. The method, then: as §1, §2, §3
For experiment [6], the system named is A. fumigatus A1160 (MFIG001). The note with it: Aspergillus fumigatus, read-out: MIC99 A. fumigatus A1160.
For a further experiment, the system named is C. neoformans (F10025). Conditions: Cryptococcus neoformans, read-out: MIC99 C. neoformans.
For experiment [7], the system named is Candida glabrata (ACPF3309). The note with it: Nakaseomyces glabratus, read-out: MIC99 Candida glabrata.

≈ marks a conversion by molar mass, not a printed value.

As a reminder, the MIC80 is an inhibitory concentration at the 80% level, which refers to growth in some studies and to a panel of isolates in others. As usually defined, the IC50 is the concentration at which inhibition is half-maximal. Regarding `CCCCNC(=O)c1cc(NC(=O)c2cc(NC(=O)c3ccc(/C=C/c4cnc5ccccc5c4)cc3)cn2C)cn1C` [IVa5, (E)-N-butyl-1-methyl-4-(1-methyl-4-(4-(2-(quinolin-3-yl)vinyl)benzamido)-1H-pyrrole-2-carboxamido)-1H-pyrrole-2-carboxamide], the “S. aureus Selectivity Indices, Group” value in experiment [1] (Amides) is “B (Group B: 1.4 < SI <= 3)”. Moreover, the MIC80 was less than 5 µM in experiment [1], less than 5 µM in experiment [2] and greater than 100 µM in experiment [3]. Also, the “E. faecalis Selectivity Indices, Group” value in experiment [2] (SI, IC50 (μM)/MIC80 (μM), HEK293 cytotoxicity, Amides) is given as “C (Group: C, 1.5 < SI <= 5)”. Moreover, the “E. faecalis Selectivity Index (SI)” value in experiment [2] (SI, IC50 (μM)/MIC80 (μM), HEK293 cytotoxicity, numeric value) is reported as 2. Also, in the experiment with T. vaginalis (SI, IC50 (μM)/IC50 (μM), HEK293 cytotoxicity, Amides), the “T. vaginalis Selectivity Indices, Group” value is “C (Group C: SI > 0.5)”. In addition, the “T. vaginalis Selectivity Index (SI)” value in the experiment on T. vaginalis (SI, IC50 (μM)/IC50 (μM), HEK293 cytotoxicity, numeric value) amounted to 2. Also, in the experiment on T. vaginalis, the half-inhibitory concentration (IC50) is 1 to 5 µM. Further, the “% Normalised Fluorescence with gDNA” value in experiment [4] worked out at 51%. Also, in experiment [5], the “% Normalised Fluorescence with polyAU RNA” value amounted to 12%.
As for `Cn1cc(NC(=O)c2cc(NC(=O)c3ccc(/C=C/c4cnc5ccccc5c4)cc3)cn2C)cc1C(=O)NCCOCCOCCO` [IVa7, (E)-N-(2-(2-(2-hydroxyethoxy)ethoxy)ethyl)-1-methyl-4-(1-methyl-4-(4-(2-(quinolin-3-yl)vinyl)benzamido)-1H-pyrrole-2-carboxamido)-1H-pyrrole-2-carboxamide], the MIC80 in experiment [1] was 5 to 25 µM (≈ 3.25 to 16.3 µg/mL); in experiment [2], greater than 100 µM; in experiment [3], greater than 100 µM. In addition, the half-inhibitory concentration (IC50) in the experiment with T. vaginalis fell in the range of 5 to 50 µM. Besides, the “% Normalised Fluorescence with gDNA” value in experiment [4] came out at 65%. The “% Normalised Fluorescence with polyAU RNA” value in [5] stood at 92%.
One may read the MIC99 as the lowest concentration that inhibits either 99% of growth or 99% of the strains tested, depending on the study. As to `[H]/N=C(\CCNC(=O)c1cc(NC(=O)c2cc(NC(=O)c3ccc(C=Cc4ccc5nonc5c4)cc3)cn2C)cn1C)NC` [Ia3, (E)-4-(4-(2-(benzo[c][1,2,5]oxadiazol-5-yl)vinyl)benzamido)-N-(5-((3-imino-3-(methylamino)propyl)carbamoyl)-1-methyl-1H-pyrrol-3-yl)-1-methyl-1H-pyrrole-2-carboxamide], the results for the MIC80 in experiment [1] and in experiment [3] were less than 5 µM and greater than 100 µM, respectively. In addition, the “% Normalised Fluorescence with gDNA” value in experiment [4] was 13%. In addition, in experiment [5], the “% Normalised Fluorescence with polyAU RNA” value is listed as 38%. The MIC99 in experiment [6] is less than 5 µg/mL.
With `C/N=C(/CCNC(=O)c1cc(NC(=O)c2cc(NC(=O)c3ccc(/C=C/c4ccc(C(F)(F)F)cc4)cc3)cn2C)cn1C)NC` [Ia5, 1-methyl-4-(1-methyl-4-(4-((E)-4-(trifluoromethyl)styryl)benzamido)-1H-pyrrole-2-carboxamido)-N—((Z)-3-(methylamino)-3-(methylimino)propyl)-1H-pyrrole-2-carboxamide], the MIC80 in experiment [1] was less than 5 µM; in experiment [3], greater than 100 µM. Also, the “% Normalised Fluorescence with gDNA” value in experiment [4] was found to be 21%. For the same molecule, the “% Normalised Fluorescence with polyAU RNA” value in experiment [5] is given as 12%. Moreover, the MIC99 in experiment [6] was 25 to 50 µg/mL (≈ 39.5 to 78.9 µM).
Take `C/N=C(/CCNC(=O)c1cc(NC(=O)c2cc(NC(=O)c3ccc(/C=C/c4ccc5ccccc5c4)cc3)cn2C)cn1C)NC` [Ia7, 1-methyl-4-(1-methyl-4-(4-((E)-2-(naphthalen-2-yl)vinyl)benzamido)-1H-pyrrole-2-carboxamido)-N—((Z)-3-(methylamino)-3-(methylimino)propyl)-1H-pyrrole-2-carboxamide]: the MIC80 in [1] is less than 5 µM; in experiment [3], greater than 100 µM. In experiment [4], the “% Normalised Fluorescence with gDNA” value is given as 10%. Also, the “% Normalised Fluorescence with polyAU RNA” value in [5] is 24%. Moreover, the MIC99 in experiment [6] was in the range of 25 to 50 µg/mL (≈ 40.6 to 81.2 µM).
On to `COc1cccc(/C=C/c2ccc(C(=O)Nc3cc(C(=O)Nc4cc(C(=O)NCCC(=N)NC(C)C)n(C)c4)n(C)c3)cc2)c1` [Ia19, (E)-N-(3-imino-3-(isopropylamino)propyl)-4-(4-(4-(3-methoxystyryl)benzamido)-1-methyl-1H-pyrrole-2-carboxamido)-1-methyl-1H-pyrrole-2-carboxamide], for which the “S. aureus Selectivity Indices, Group” value in [1] (Alkyl Amidines and NH Pyrroles) is listed as “B (Group B: 3 < SI <= 5)”. In addition, the MIC80 in experiment [1] lay in the range of 5 to 25 µM (≈ 3.05 to 15.2 µg/mL); in experiment [2], 5 to 25 µM (≈ 3.05 to 15.2 µg/mL); in experiment [3], 25 to 100 µM (≈ 15.2 to 61 µg/mL). Further, the IC50 in the experiment on T. vaginalis lay in the range of 5 to 50 µM. In addition, the “% Normalised Fluorescence with gDNA” value in experiment [4] is on record as 10%. In addition, in [5], the “% Normalised Fluorescence with polyAU RNA” value amounted to 8%.
In the case of `COc1cccc(/C=C/c2ccc(C(=O)Nc3cc(C(=O)Nc4cc(C(=O)NCCC(=N)NC(C)C)n(C)c4)n(C)c3)cn2)c1` [Ia23, (E)-N-(5-((5-((3-imino-3-(isopropylamino)propyl)carbamoyl)-1-methyl-1H-pyrrol-3-yl)carbamoyl)-1-methyl-1H-pyrrol-3-yl)-6-(3-methoxystyryl)nicotinamide], the results for the MIC80 in [1], in experiment [2] and in [3] were 25 to 100 µM (≈ 15.3 to 61.1 µg/mL), greater than 100 µM and greater than 100 µM, respectively. Moreover, in the experiment on T. vaginalis, the IC50 was 5 to 50 µM. In experiment [4], the “% Normalised Fluorescence with gDNA” value came out at 41%. The “% Normalised Fluorescence with polyAU RNA” value in experiment [5] is 25%.
Take `[H]/N=C(\CCNC(=O)c1cc(NC(=O)c2cc(NC(=O)c3ccc(C=Cc4ccc5nonc5c4)cc3)cn2C)cn1C)NCCCN(C)C` [Ia46, (E)-4-(4-(2-(benzo[c][1,2,5]oxadiazol-5-yl)vinyl)benzamido)-N-(5-((3-((3-(dimethylamino)propyl)amino)-3-iminopropyl)carbamoyl)-1-methyl-1H-pyrrol-3-yl)-1-methyl-1H-pyrrole-2-carboxamide]: the MIC80 was 25 to 100 µM (≈ 16.6 to 66.5 µg/mL) in experiment [1], greater than 100 µM in experiment [2] and greater than 100 µM in experiment [3]. Moreover, the IC50 in the experiment with T. vaginalis lay within 5 to 50 µM. In experiment [4], the “% Normalised Fluorescence with gDNA” value is reported as 10%. Further, the “% Normalised Fluorescence with polyAU RNA” value in [5] came to 2%.
With `[H]/N=C(\CCNC(=O)c1cc(NC(=O)c2cc(NC(=O)c3ccc(C=Cc4ccc5nonc5c4)cc3)cn2C)cn1C)N1CCN(C)CC1` [Ib4, (E)-4-(4-(2-(benzo[c][1,2,5]oxadiazol-5-yl)vinyl)benzamido)-N-(5-((3-imino-3-(4-methylpiperazin-1-yl)propyl)carbamoyl)-1-methyl-1H-pyrrol-3-yl)-1-methyl-1H-pyrrole-2-carboxamide], the MIC80 was less than 5 µM in [1], less than 5 µM in [2] and greater than 100 µM in [3]. The “% Normalised Fluorescence with gDNA” value in experiment [4] is on record as 20%. Besides, in [5], the “% Normalised Fluorescence with polyAU RNA” value came to 5%. The MIC99 in the experiment on C. neoformans (F10025) lay in the range of 5 to 25 µg/mL (≈ 7.54 to 37.7 µM); in [7] it was 25 to 50 µg/mL (≈ 37.7 to 75.4 µM).
As for `CCCCCC[N+](C)(C)CCNC(=O)c1cc(NC(=O)c2cc(NC(=O)c3ccc(/C=C/c4cnc5ccccc5c4)cc3)cn2C)cn1C` [Ic5, (E)-N,N-dimethyl-N-(2-(1-methyl-4-(1-methyl-4-(4-(2-(quinolin-3-yl)vinyl)benzamido)-1H-pyrrole-2-carboxamido)-1H-pyrrole-2-carboxamido)ethyl)hexan-1-aminium], the “S. aureus Selectivity Indices, Group” value in experiment [1] (Quaternary ammoniums) is listed as “C (Group C: 5 < SI <= 10)”. The MIC80 was less than 5 µM in [1], 5 to 25 µM in experiment [2] and greater than 100 µM in [3]. Besides, the “T. vaginalis Selectivity Indices, Group” value in the experiment on T. vaginalis (SI, IC50 (μM)/IC50 (μM), HEK293 cytotoxicity, Quaternary ammoniums) is recorded as “B (Group B: 0.8 < SI <= 1.5)”. The IC50 with T. vaginalis was 1 to 5 µM. The MIC99 in experiment [6] is greater than 50 µg/mL; in experiment [7] it was 5 to 25 µg/mL.

(Values after patent publication US20250313546A1, “NUCLEIC ACID BINDERS” (UNIVERSITY OF STRATHCLYDE, priority 2022, published 2025).)
